Data on 15 molecules can be found in US20220169654A1, “New Organic Compounds” (Servier Pharmaceuticals LLC, priority 2020, published 2022).

pIC50: −log10 of the molar value. Bounds are passed on as bounds.

The subject of experiment [1] is SAM in HCT116 human colon carcinoma cell line with MTAP gene deleted (MTAP −/−). Put plainly: Cellular assay of target engagement (SAM), LC-MS/MS, 72 hrs. The format is cell-based. The settings on record: HCT-116, IC50 bin with Max Inh., read-out: Cell 72 h SAM Inhibition (MTAP −/−). The procedure, abridged: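 SAM levels were quantified by LC-MS/MS (m/z 399.2→250.1, d3-SAM internal standard) from cold methanol/acetic acid extracts, yielding IC50. Compound was applied as a 10-point 3-fold series for 72 hrs to MTAP −/− HCT116 cells seeded 24 hours before.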

For the next experiment, the system named is HCT116 MTAP+/+. The experiment can be described thus: Inhibition of cellular proliferation, 4 days, Cell Titer Glo, HCT116 MTAP+/+. The format is cell-based. The settings on record: Homo sapiens, HCT-116, 96 h, IC50 bin with Max Inh., read-out: 4 Day Relative Growth Inhibition (MTAP +/+). The procedure, abridged: (§1)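 IC50 derived from blank-corrected ATP luminescence (Cell Titer Glo) expressed relative to within-plate 0.2% DMSO wells. Compound, as a 10-point 3-fold series, was added 24 h after seeding the MTAP+/+ or MTAP−/− HCT116 cells and incubated 4 days at 37° C./5% CO2.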
In general terms: In ATP-based viability assays light output follows the ATP content of the culture.

The test system of another experiment is HCT116 MTAP−/−. Put plainly: Inhibition of cellular proliferation, 4 days, Cell Titer Glo, HCT116 MTAP−/−. The settings on record: Homo sapiens, HCT-116, 96 h, IC50 bin with Max Inh., read-out: 4 Day Relative Growth Inhibition (MTAP −/−). The format is cell-based. In a few lines: as §1
A further experiment deals with T1, MAT2A homodimer (Homo sapiens, UniProt P31153).
T1 construct: inferred from Ni sepharose purification with imidazole elution; made in house; host or cells: Sf9 insect cells, baculovirus (Bac to Bac, pFASTBAC1)
Put plainly: MAT2A inhibition (biochemical, liberated phosphate, PiColorLock Gold). The settings on record: recombinant MAT2A homodimer; IC50 bin with Max Inh.; read-out: Enzyme Inhibition Bin. In a few lines:
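Enzyme at 4 μg/mL and compound equilibrated 60 min at 25 °C, then 60 min reaction after adding substrate mix (500 μM ATP, 400 μM methionine). Released phosphate quantified by colorimetric kit against a phosphate standard curve to give IC50. Secondary format used 1 μg/mL enzyme with 5 h incubation.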

T1 sequence (P31153 whole entry): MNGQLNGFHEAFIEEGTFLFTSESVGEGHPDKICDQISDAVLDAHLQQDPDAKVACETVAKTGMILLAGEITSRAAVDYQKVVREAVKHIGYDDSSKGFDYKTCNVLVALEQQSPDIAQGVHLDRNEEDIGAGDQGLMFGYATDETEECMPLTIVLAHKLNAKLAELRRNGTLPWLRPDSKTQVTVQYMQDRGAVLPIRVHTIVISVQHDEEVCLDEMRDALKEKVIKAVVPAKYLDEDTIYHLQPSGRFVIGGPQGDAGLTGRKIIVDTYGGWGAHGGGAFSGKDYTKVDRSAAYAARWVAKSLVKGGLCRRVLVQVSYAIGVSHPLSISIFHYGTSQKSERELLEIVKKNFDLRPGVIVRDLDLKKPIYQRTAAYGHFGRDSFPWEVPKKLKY

Take `Cn1cc2cc(-n3nc4c(C#N)cn(CC5CC5)c4c(-c4ccc(CO)nc4)c3=O)ccc2n1` [Example 158, 5-(cyclopropylmethyl)-4-(6-(hydroxymethyl)pyridin-3-yl)-2-(2-methyl-2H-indazol-5-yl)-3-oxo-3,5-dihydro-2H-pyrrolo[3,2-c]pyridazine-7-carbonitrile]: the pIC50 in experiment [1] was 6.00 to 7.00; in the experiment on HCT116 MTAP+/+, below 6.00; in the experiment with HCT116 MTAP−/−, 6.00 to 7.00; on MAT2A homodimer, above 7.00.
In the case of `CNC(=O)c1cn(CC2CC2)c2c(-c3ccc(C)nc3)c(=O)n(-c3ccc4nn(C)cc4c3)nc12` [Example 177, 5-(cyclopropylmethyl)-N-methyl-2-(2-methyl-2H-indazol-5-yl)-4-(6-methylpyridin-3-yl)-3-oxo-3,5-dihydro-2H-pyrrolo[3,2-c]pyridazine-7-carboxamide], the pIC50 in experiment [1] was above 7.00; in the experiment with HCT116 MTAP+/+, below 6.00; with HCT116 MTAP−/−, 6.00 to 7.00; on MAT2A homodimer, above 7.00.
For the molecule `O=c1c(-c2ccc(OC(F)F)cc2)c2c(ccn2CC2CC2)nn1-c1ccc2ncccc2c1` [Example 225, 5-(cyclopropylmethyl)-4-(4-(difluoromethoxy)phenyl)-2-(quinolin-6-yl)-2,5-dihydro-3H-pyrrolo[3,2-c]pyridazin-3-one], the pIC50 in experiment [1] is above 7.00; with HCT116 MTAP+/+, 6.00 to 7.00; with HCT116 MTAP−/− it was above 7.00; at MAT2A homodimer it was above 7.00.
On to `Cn1cc2cc(-n3nc4ncn(CC5CC5)c4c(-c4ccc(OC(F)F)cc4)c3=O)ccc2n1` [Example 186, 5-(cyclopropylmethyl)-4-[4-(difluoromethoxy)phenyl]-2-(2-methyl-2H-indazol-5-yl)-2H,3H,5H-imidazo[4,5-c]pyridazin-3-one], for which the pIC50 in experiment [1] is above 7.00; in the experiment on HCT116 MTAP+/+ it was 6.00 to 7.00; in the experiment with HCT116 MTAP−/−, above 7.00; at MAT2A homodimer, above 7.00.
On to `Cn1cc2cc(-n3nc4ccn(CC5CC5)c4c(-c4ccc(C#N)cc4)c3=O)ccc2n1` [Example 154, 4-(5-(cyclopropylmethyl)-2-(2-methyl-2H-indazol-5-yl)-3-oxo-3,5-dihydro-2H-pyrrolo[3,2-c]pyridazin-4-yl)benzonitrile], for which the pIC50 in experiment [1] was 6.00 to 7.00; in the experiment with HCT116 MTAP+/+, 6.00 to 7.00; with HCT116 MTAP−/−, 6.00 to 7.00; on MAT2A homodimer, above 7.00.
Take `[2H]C([2H])([2H])Oc1ccc(-c2c(=O)n(-c3ccc4nn(C)cc4c3)nc3cnn(CC4CC4)c23)cc1` [Example 220, 1-(cyclopropylmethyl)-7-(4-(methoxy-d3)phenyl)-5-(2-methyl-2H-indazol-5-yl)-1,5-dihydro-6H-pyrazolo[4,3-c]pyridazin-6-one]: the pIC50 in experiment [1] is above 7.00; in the experiment on HCT116 MTAP+/+ it was 6.00 to 7.00; in the experiment with HCT116 MTAP−/− it was above 7.00; on MAT2A homodimer, above 7.00.
For the molecule `C[C@H](O)c1cn(CC2CC2)c2c(-c3ccc(C4CC4)nc3)c(=O)n(-c3ccc4nn(C)cc4c3)nc12` [Example 250, (S)-5-(cyclopropylmethyl)-4-(6-cyclopropylpyridin-3-yl)-7-(1-hydroxyethyl)-2-(2-methyl-2H-indazol-5-yl)-2,5-dihydro-3H-pyrrolo[3,2-c]pyridazin-3-one], the pIC50 in experiment [1] is above 7.00; with HCT116 MTAP+/+ it was below 6.00; with HCT116 MTAP−/−, above 7.00; on MAT2A homodimer, above 7.00.
For `Cc1ccc(-c2c(=O)n(-c3ccc4nn(C)cc4c3)nc3ncn(CC4CC4)c23)cn1` [Example 187, 5-(cyclopropylmethyl)-2-(2-methyl-2H-indazol-5-yl)-4-(6-methylpyridin-3-yl)-2,5-dihydro-3H-imidazo[4,5-c]pyridazin-3-one], the pIC50 was 6.00 to 7.00 in experiment [1], below 6.00 in the experiment with HCT116 MTAP+/+, 6.00 to 7.00 with HCT116 MTAP−/− and above 7.00 at MAT2A homodimer.
`N#Cc1cn(CC2CC2)c2c(-c3ccc(C4CC4)nc3)c(=O)n(-c3ccc4nn(CC5CC5)cc4c3)nc12` [Example 160, 5-(cyclopropylmethyl)-2-(2-(cyclopropylmethyl)-2H-indazol-5-yl)-4-(6-cyclopropylpyridin-3-yl)-3-oxo-3,5-dihydro-2H-pyrrolo[3,2-c]pyridazine-7-carbonitrile]: the pIC50 was above 7.00 in experiment [1], 6.00 to 7.00 in the experiment on HCT116 MTAP+/+, above 7.00 in the experiment with HCT116 MTAP−/− and above 7.00 on MAT2A homodimer.
As to `CNC(=O)c1cn(CC2CC2)c2c(-c3ccc(C4CC4)cc3)c(=O)n(-c3ccc4nn(C)cc4c3)nc12` [Example 167, 5-(cyclopropylmethyl)-4-(4-cyclopropylphenyl)-N-methyl-2-(2-methyl-2H-indazol-5-yl)-3-oxo-3,5-dihydro-2H-pyrrolo[3,2-c]pyridazine-7-carboxamide], the pIC50 (in experiment [1]; in the experiment with HCT116 MTAP+/+; in the experiment on HCT116 MTAP−/−; at MAT2A homodimer) was above 7.00 in each case.
In the case of `Cn1cc2cc(-n3nc4c(C#N)cn(CC5CC5)c4c(-c4ccc([C@@H]5CC5(F)F)nc4)c3=O)ccc2n1` [Example 252, (S)-5-(cyclopropylmethyl)-4-(6-(2,2-difluorocyclopropyl)pyridin-3-yl)-2-(2-methyl-2H-indazol-5-yl)-3-oxo-3,5-dihydro-2H-pyrrolo[3,2-c]pyridazine-7-carbonitrile], the pIC50 is 6.00 to 7.00 in experiment [1], below 6.00 in the experiment on HCT116 MTAP+/+, 6.00 to 7.00 in the experiment on HCT116 MTAP−/− and above 7.00 at MAT2A homodimer.
In the case of `Cn1cc2cc(-n3nc4c(F)cn(CC5CC5)c4c(-c4ccc(C5CC5)nc4)c3=O)ccc2n1` [Example 235, 5-(cyclopropylmethyl)-4-(6-cyclopropylpyridin-3-yl)-7-fluoro-2-(2-methyl-2H-indazol-5-yl)-2,5-dihydro-3H-pyrrolo[3,2-c]pyridazin-3-one], the pIC50 in experiment [1] was above 7.00; in the experiment on HCT116 MTAP+/+, below 6.00; in the experiment on HCT116 MTAP−/− it was above 7.00; on MAT2A homodimer, above 7.00.
For `Cn1cc2cc(-n3nc4c(C#N)cn(CCC(F)(F)F)c4c(-c4ccc(C5CC5)nc4)c3=O)ccc2n1` [Example 109, 4-(6-cyclopropylpyridin-3-yl)-2-(2-methyl-2H-indazol-5-yl)-3-oxo-5-(3,3,3-trifluoropropyl)-3,5-dihydro-2H-pyrrolo[3,2-c]pyridazine-7-carbonitrile], the pIC50 is 6.00 to 7.00 in experiment [1], below 6.00 in the experiment with HCT116 MTAP+/+, 6.00 to 7.00 with HCT116 MTAP−/− and above 7.00 at MAT2A homodimer.
For `Cn1cc2cc(-n3nc4c(C#N)cn(C[C@@H]5CC5(F)F)c4c(-c4ccc(C5CC5)nc4)c3=O)ccc2n1` [Example 268, (S)-4-(6-cyclopropylpyridin-3-yl)-5-((2,2-difluorocyclopropyl)methyl)-2-(2-methyl-2H-indazol-5-yl)-3-oxo-3,5-dihydro-2H-pyrrolo[3,2-c]pyridazine-7-carbonitrile], the pIC50 in experiment [1] was above 7.00; in the experiment with HCT116 MTAP+/+, below 6.00; in the experiment on HCT116 MTAP−/−, above 7.00; at MAT2A homodimer, above 7.00.
Regarding `[2H]C([2H])([2H])Oc1ccc(-n2nc3c(C#N)cn(CC4CC4)c3c(-c3ccc(C)nc3)c2=O)cc1` [Example 131, 5-(cyclopropylmethyl)-2-(4-(methoxy-d3)phenyl)-4-(6-methylpyridin-3-yl)-3-oxo-3,5-dihydro-2H-pyrrolo[3,2-c]pyridazine-7-carbonitrile], the pIC50 is above 7.00 in experiment [1], below 6.00 in the experiment on HCT116 MTAP+/+, 6.00 to 7.00 with HCT116 MTAP−/− and above 7.00 on MAT2A homodimer.
